Laboratory results from the NIST ThermoML archive (doi:10.1016/j.jct.2012.11.027).

Test: xn = mol fraction of the nth substance listed
Conditions: 101 kPa, Liquid, Linear variable-path acoustic interferometer

C=CC(=O)OC [methyl propenoate] + CCCCCCCCCCO
speed of sound [m/s]
Conditions | 288.15 K | 293.15 K | 298.15 K | 303.15 K | 308.15 K | 313.15 K | 318.15 K
x1 = 0.0762 | 1388.2 | 1370.2 | 1352.1 | 1333.5 | 1318.1 | 1299.5 | 1284
x1 = 0.1523 | 1366.7 | 1348.2 | 1330.6 | 1312.1 | 1295.8 | 1276.3 | 1259.4
x1 = 0.2225 | 1346.9 | 1328.3 | 1310.1 | 1291.2 | 1275.1 | 1255.2 | 1238.1
x1 = 0.3073 | 1324.4 | 1304.9 | 1286.5 | 1268.1 | 1251.5 | 1231.5 | 1214.4
x1 = 0.3848 | 1304.7 | 1285.2 | 1267 | 1248.2 | 1231.2 | 1211.3 | 1194.3
x1 = 0.4622 | 1286.4 | 1267 | 1248.9 | 1230 | 1212.8 | 1193.1 | 1175.6
x1 = 0.5356 | 1270.8 | 1251.3 | 1233 | 1214.6 | 1197 | 1177.4 | 1160
x1 = 0.6092 | 1257.7 | 1238.3 | 1219.8 | 1201.2 | 1183 | 1163.6 | 1145.6
x1 = 0.6768 | 1247.2 | 1227.9 | 1209.4 | 1190.4 | 1171.8 | 1152.1 | 1133.7
x1 = 0.7443 | 1238.8 | 1219.3 | 1200.6 | 1181.3 | 1161.9 | 1141.8 | 1123.2
x1 = 0.8089 | 1233.4 | 1213.4 | 1193.9 | 1174.3 | 1154.1 | 1134 | 1114.4
x1 = 0.8736 | 1229.8 | 1209.1 | 1189.2 | 1169.1 | 1147.8 | 1127.2 | 1106.9
x1 = 0.9412 | 1227.4 | 1206.1 | 1185.6 | 1164.6 | 1142.5 | 1121.4 | 1100.4
x1 = 1 | 1226.6 | 1204.6 | 1183.6 | 1162.2 | 1139.1 | 1117.8 | 1095.7

C=CC(=O)OC [methyl propenoate] + CCCCO
speed of sound [m/s]
Conditions | 288.15 K | 293.15 K | 298.15 K | 303.15 K | 308.15 K | 313.15 K | 318.15 K
x1 = 0.0777 | 1271.2 | 1250.8 | 1230.5 | 1212.8 | 1193.9 | 1174.9 | 1155
x1 = 0.1555 | 1261.3 | 1240.6 | 1220.1 | 1202.2 | 1182.9 | 1163.7 | 1143.8
x1 = 0.2273 | 1253.3 | 1232.6 | 1212.2 | 1194.2 | 1174.7 | 1155.5 | 1135.6
x1 = 0.299 | 1247 | 1226.3 | 1205.9 | 1187.7 | 1167.9 | 1148.7 | 1128.7
x1 = 0.3791 | 1241.3 | 1220.5 | 1200.2 | 1181.7 | 1161.6 | 1142.2 | 1122.1
x1 = 0.4593 | 1236.9 | 1216.1 | 1195.7 | 1176.8 | 1156.4 | 1136.8 | 1116.5
x1 = 0.5344 | 1233.9 | 1212.8 | 1192.4 | 1173.1 | 1152.4 | 1132.5 | 1111.9
x1 = 0.6095 | 1231.7 | 1210.5 | 1189.9 | 1170.3 | 1149.2 | 1128.9 | 1108
x1 = 0.6789 | 1230.3 | 1208.9 | 1188.2 | 1168.2 | 1146.7 | 1126.2 | 1104.9
x1 = 0.7483 | 1229.2 | 1207.7 | 1186.9 | 1166.6 | 1144.6 | 1123.8 | 1102.3
x1 = 0.8099 | 1228.5 | 1206.9 | 1186 | 1165.4 | 1143.1 | 1122.1 | 1100.4
x1 = 0.8715 | 1228 | 1206.2 | 1185.3 | 1164.4 | 1141.7 | 1120.6 | 1098.6
x1 = 0.9358 | 1227.4 | 1205.5 | 1184.5 | 1163.4 | 1140.4 | 1119 | 1096.9
x1 = 1 | 1226.6 | 1204.6 | 1183.6 | 1162.2 | 1139.1 | 1117.8 | 1095.7
